Experimental data published in patent US8697656B2, “Compounds, in particular peptides, compositions comprising them and cosmetic and dermo-pharmaceutical uses” (SEDERMA, priority 2009, dated 2014).
Non-standard residues stand in square brackets, D forms with d. Residues, ends and D or L forms follow the SMILES beside them. *: point of attachment. Met(O2) = CS(=O)(=O)CC[CH](N)C(=O)O; Palmitoyl = CCCCCCCCCCCCCCCC(=O)*; Ava = NCCCCC(=O)O

Experiments:
dermal NHF = assay: Immunostaining method for collagen I on dermal NHF (Table 7); type: cell-based, human; conditions: Table 7 Test 2
From the text: Table 7 Showing % Differences in Collagen I in the Dermis Compared to the Control for Dioxygenated Peptide Compounds According to the Immunostaining Method or to ELISA Test on Dermal NHF

[1] = test system: Normal human dermal fibroblasts (NHF); assay: ELISA test on normal human dermal fibroblasts (NHF): macromolecules in culture supernatants; type: cell-based; conditions: Table 7 Test 1
Method: ELISA Test on Normal Human Dermal Fibroblasts (NHF)
This test examines the dermal molecules.
Normal human dermal fibroblasts are cultured in multi-well plates. The cells either are or are not placed in contact with the test substances for 3 days. The culture supernatants are removed and the quantity of macromolecules present (collagen I, fibronectin, collagen IV and hyaluronic acid) is assayed by ELISA.

Compound | Collagen I in the dermis, Test 2 (% difference compared to the control) (dermal NHF; 2 ppm) | Collagen I in the dermis, Test 2 (% difference compared to the control) (dermal NHF; 4 ppm) | Collagen I in the dermis, Test 2 (% difference compared to the control) (dermal NHF; 6 ppm) | Collagen I in the dermis, Test 1 (% difference compared to the control) ([1]; 4 ppm) | Collagen I in the dermis, Test 1 (% difference compared to the control) ([1]; 6 ppm) | Collagen I in the dermis, Test 1 (% difference compared to the control) ([1]; 2 ppm)
CCCCCCCCCCCCCCCC(=O)NC(CCS(C)(=O)=O)C(=O)NCCCCC(N)=O (stereo not shown) [Pal-MO2-Ava-NH2] | +375% | +582% | +461% | – | – | –
Pal-MO2-T-K-F-OH: Dioxygenated peptide compound, SEQ ID NO 29 | +218% | +456% | +520% | +111% | +148% | –
Pal-K-F-MO2-K-OH: Dioxygenated peptide compound, SEQ ID NO 31 (Palmitoyl-KF[Met(O2)]K-OH; SMILES CCCCCCCCCCCCCCCC(=O)N[C@@H](CCCCN)C(=O)N[C@@H](Cc1ccccc1)C(=O)N[C@@H](CCS(C)(=O)=O)C(=O)N[C@@H](CCCCN)C(=O)O) | – | – | – | +80% | +81% | –
Pal-K-Ava-MO2-K-OH: Dioxygenated peptide compound, SEQ ID NO 35 (Palmitoyl-K[Ava][Met(O2)]K-OH; SMILES CCCCCCCCCCCCCCCC(=O)N[C@@H](CCCCN)C(=O)NCCCCC(=O)N[C@@H](CCS(C)(=O)=O)C(=O)N[C@@H](CCCCN)C(=O)O) | – | – | – | +167% | – | +63%
Pal-K-T-F-MO2-NH2: Dioxygenated peptide compound, SEQ ID NO 32 (Palmitoyl-KTF[Met(O2)]-NH2; SMILES CCCCCCCCCCCCCCCC(=O)N[C@@H](CCCCN)C(=O)N[C@H](C(=O)N[C@@H](Cc1ccccc1)C(=O)N[C@@H](CCS(C)(=O)=O)C(N)=O)[C@@H](C)O) | +267% | +420% | +400% | +106% | +121% | –
Pal-K-T-MO2-K-OH: Dioxygenated peptide compound, SEQ ID NO 30 (Palmitoyl-KT[Met(O2)]K-OH; SMILES CCCCCCCCCCCCCCCC(=O)N[C@@H](CCCCN)C(=O)N[C@H](C(=O)N[C@@H](CCS(C)(=O)=O)C(=O)N[C@@H](CCCCN)C(=O)O)[C@@H](C)O) | +273% | +341% | +262% | +75% | +161% | –
Pal-K-MO2-T-K-OH: Dioxygenated peptide compound, SEQ ID NO 33 (Palmitoyl-K[Met(O2)]TK-OH; SMILES CCCCCCCCCCCCCCCC(=O)N[C@@H](CCCCN)C(=O)N[C@@H](CCS(C)(=O)=O)C(=O)N[C@H](C(=O)N[C@@H](CCCCN)C(=O)O)[C@@H](C)O) | – | +192% | +217% | +45% | +194% | –
CCCCCCCCCCCCCCCC(=O)NC(CCS(C)(=O)=O)C(=O)NC(CCCCN)C(=O)O (stereo not shown) [Pal-MO2-K-OH] (Palmitoyl-[Met(O2)]-Lys-OH; configuration not given here) | +270% | +457% | +226% | – | – | –
Pal-K-MO2-F-K-OH: Dioxygenated peptide compound, SEQ ID NO 34 (Palmitoyl-K[Met(O2)]FK-OH; SMILES CCCCCCCCCCCCCCCC(=O)N[C@@H](CCCCN)C(=O)N[C@@H](CCS(C)(=O)=O)C(=O)N[C@@H](Cc1ccccc1)C(=O)N[C@@H](CCCCN)C(=O)O) | – | – | – | +91% | – | –
CCCCCCCCCCCCCCCC(=O)NCCCCC(=O)NC(CCS(C)(=O)=O)C(N)=O (stereo not drawn) [Pal-Ava-MO2-NH2] | +495% | +667% | +557% | – | – | –
Pal-K-MO2-Ava-K-OH: Dioxygenated peptide compound, SEQ ID NO 36 (Palmitoyl-K[Met(O2)][Ava]K-OH; SMILES CCCCCCCCCCCCCCCC(=O)N[C@@H](CCCCN)C(=O)N[C@@H](CCS(C)(=O)=O)C(=O)NCCCCC(=O)N[C@@H](CCCCN)C(=O)O) | – | – | – | – | – | +75%
